{
  "source": "patent US5032404A",
  "about": "“Lipsome-incorporation of polyenes” (priority 1989, dated 1991)",
  "key": {"C. albicans [1]": {"system": "C. albicans", "test": "Single dose therapy of disseminated Candida albicans infection in mice", "type": "in vivo", "details": "free-hamycin from 5 microgram/mouse, versus control untreated group", "experimental": "Hale-Stoner mice, six to eight weeks old (body weight, 20-25 g) were purchased from The University of Texas Science Park (Bastrop, TX). The mice (eight per group) were injected with 0.2 ml of C. albicans cell suspension containing 7×10^5 colony-forming units (cfu) via the tail vein. This concentration of cells was consistent in producing a disseminated infection after 48 hr, affecting primarily the liver, spleen, lungs and kidneys.\nMice were infected with C. albicans as described in Example 7. […] The survival of the animals in each group was recorded."}, "[2]": {"details": "principal sterol of fungal versus human cell membranes; cited from earlier work"}, "[3]": {"system": "Candida albicans (strain 336)", "test": "In vitro fungal inhibition (MIC), twofold serial dilution", "type": "cell-based", "description": "The antifungal activity of free- verses liposomalhamycin against Candida albicans (strain 336) was determined in vitro. All strains of yeast were grown overnight at 37° C. on Sabouraud dextrose agar (SDA) plates. All molds were grown at 30° C. on SDA for 3 to 10 days prior to collection of spores. The inoculum was then processed for susceptibility testing as described earlier (Hopfer et al. (1984), Antimicrob. Agents Chemotherap., 25:387-389). A twofold serial dilutron method (Shadomy et al., In E. H. Lennette, et al., (eds.) Manual of Clinical Microbiology, 3rd ed. American Society for Microbiology, Washington, D.C. , pp. 647-653 (1980)) adapted to microtiter plates was used to determine the minimal inhibitory concentration (MIC) of the drugs.\nThe antifungal activity of free- versus liposomal-lucensomycin against Candida albicans (Strain 336) was determined in vitro. […] The MIC of free-lucensomycin was compared with that of liposomal-lucensomycin."}, "C. albicans [4]": {"system": "C. albicans", "test": "Antifungal activity (MIC) of free versus liposomal polyenes", "type": "cell-based", "description": "The antifungal activity of free-verses liposomal-small polyenes was determined in vivo. These small polyenes included filipin, lagosin and natamycin.\nThe in vivo toxicity of liposomal small polyenes was evaluated in groups of 8 Hale-Stone mice (6-8 weeks old, body weight =20-25g; University of Texas Science Park, Bastrop, Tex.). Liposomal polyenes were prepared following the protocol set forth in Example 2. Each liposomal-small polyene formulated and evaluated in this study, listed in table 6, was administered to a group of normal and a group of infected mice. These infected mice were prepared by injection with 0.2 ml. of C. albicans according to the protocol set forth in Example 6.\nThe data on MIC of various liposomal-mepartricin preparations in normal and infected mice is presented for each of the small polyenes (filipin, lagasin natamysin and nystatin) and large polyenes in Table 6."}, "human RBCs": {"system": "human RBCs", "test": "In vitro toxicity: lysis of human red blood cells (hemoglobin release at 540 nm)", "details": "45 min", "text": "Lysis of human red blood cells (RBCs) was quantitated by measuring the release of hemoglobin in the supernatants at 540 nm, as described previously (Mehta et al., (1984) Biochem. Biophys, Acta., 770:230-234). […] Release of hemoglobin by hypotonic lysis of the same number of human RBCs by water was taken as 100% positive control, while cells treated with PBS were taken as negative controls.\nLysis of human red blood cells (RBCs) was quantitated by measuring the release of hemoglobin in the supernatants at 540 nm, as described previously (Mehta et al., Biochem. Biophys, Acta., Vol. 770, pp. 230-234 (1984)). […] Release of hemoglobin by hypotonic lysis of the same number of human RBCs by water was taken as 100% positive control, while cells treated with PBS were taken as negative controls.\nLysis of human red blood cells (RBCs) was quantitated by measuring the release of hemoglobin in the supernatants at 540 nm, as described previously (Mehta et al., (1984) Biochem. Biophys. Acta., 770:230-234). […] Release of hemoglobin by hypotonic lysis of the same number of human RBCs by water was taken as 100% positive control, while cells treated with PBS were taken as negative controls.\nLysis of human red blood cells (RBCs) was quantitated by measuring the release of hemoglobin in the supernatants at 540 nm, as described previously (Mehta, et al. (1984) Biochem. Biophys. Acta, 770:230-234). […]"}, "HTLV-III/LAV": {"system": "HTLV-III/LAV", "details": "monocyte-related cell line H9; Schaffner et al. (1986); cited from earlier work"}},
  "note": "Like-named read-outs stand apart in the source and are kept apart here.",
  "data": [
    {"molecule": "hamycin", "values": [
      {"measurement": "Survival of infected mice (in words)", "setting": "C. albicans [1]", "result": "None of the doses tested improved the survival of infected mice"},
      {"measurement": "Avidity for ergosterol compared to cholesterol (in words)", "setting": "[2]", "result": "greater avidity for ergosterol"},
      {"measurement": "MIC", "setting": "[3]; Candida albicans strain 336, in vitro", "result": 0.25, "unit": "microgram/ml"}
    ]},
    {"molecule": "C[C@@H]1[C@H](O)[C@@H](C)/C=C/C=C/CC/C=C/C=C/C=C/C=C/C(O[C@H]2O[C@H](C)[C@@H](O)[C@H](N)[C@@H]2O)CC2O[C@](O)(CC(O)C(O)CCC(O)CC(O)CC(O)CC(=O)O[C@H]1C)CC(O)C2C(=O)O", "note": "(some centres unmarked) [Nystatin]", "values": [
      {"measurement": "MIC, free", "setting": "C. albicans [4]", "result": 1.0, "unit": "µg/mL"}
    ]},
    {"molecule": "CCCCC1C/C=C/C=C/C=C/C=C/C(O[C@@H]2O[C@H](C)[C@@H](O)[C@H](N)[C@@H]2O)CC2OC(O)(CC(O)CC3OC3/C=C/C(=O)O1)CC(O)C2C(=O)O", "note": "(some centres unmarked) [Lucensomycin, lucensomycin]", "values": [
      {"measurement": "Avidity for ergosterol compared to cholesterol (in words)", "setting": "[2]", "result": "greater avidity for ergosterol"},
      {"measurement": "Antifungal activity (in words)", "setting": "[3]; in vitro, with or without cholesterol where stated", "result": "high antifungal activity"},
      {"measurement": "Lysis of human RBCs", "setting": "human RBCs; 10 mg/ml, 37° C.", "result": 70, "unit": "%"},
      {"measurement": "Lysis of human RBCs", "setting": "human RBCs; 30 mg/ml, liposomes without cholesterol", "result": "approximately 100%"},
      {"measurement": "Maximum solubility", "setting": "DMFA", "result": 10, "unit": "mg/mL"},
      {"measurement": "Solubility in DMFA at 1 mg/ml", "setting": "DMFA, 1 mg/ml", "result": "Yes"},
      {"measurement": "Maximum solubility", "setting": "DMSO", "result": 20, "unit": "mg/mL"},
      {"measurement": "Solubility in DMSO at 1 mg/ml", "setting": "DMSO, 1 mg/ml", "result": "Yes"},
      {"measurement": "Maximum solubility", "setting": "methanol", "result": 0.5, "unit": "mg/mL"},
      {"measurement": "Solubility in methanol at 1 mg/ml", "setting": "methanol, 1 mg/ml", "result": "Partial"},
      {"measurement": "Solubility in water/saline at 1 mg/ml", "setting": "water/saline, 1 mg/ml", "result": "nil"}
    ]},
    {"molecule": "CCCCC[C@@H](O)[C@H]1C(=O)O[C@H](C)[C@@H](O)/C=C/C=C/C=C/C=C/C=C(\\C)[C@@H](O)[C@H](O)[C@H](O)C[C@H](O)C[C@H](O)C[C@H](O)C[C@H](O)C[C@@H]1O", "note": "[Lagosin, lagosin]", "values": [
      {"measurement": "MIC, free", "setting": "C. albicans [4]", "result": 4.0, "unit": "µg/mL"}
    ]},
    {"molecule": "COc1cc2c(c3oc(-c4ccccc4)cc(=O)c13)C=CC(C)(C)O2", "note": "[Candidin, candidin]", "values": [
      {"measurement": "MIC, free", "setting": "C. albicans [4]", "result": 5.0, "unit": "µg/mL"}
    ]},
    {"molecule": "CCCCC[C@@H](O)[C@H]1C(=O)O[C@H](C)[C@@H](O)/C=C/C=C/C=C/C=C/C=C(\\C)[C@@H](O)C[C@H](O)C[C@H](O)C[C@H](O)C[C@H](O)C[C@H](O)C[C@@H]1O", "note": "[Filipin, filipin]", "values": [
      {"measurement": "MIC, free", "setting": "C. albicans [4]", "result": "8.0 to 16.0", "unit": "µg/mL"}
    ]},
    {"molecule": "mepartricin", "values": [
      {"measurement": "MIC, free", "setting": "C. albicans [4]", "result": "2.0 to 4.0", "unit": "µg/mL"}
    ]},
    {"molecule": "C[C@@H]1[C@H](O)[C@@H](C)/C=C/C=C/C=C/C=C/C=C/C=C/C=C/[C@H](O[C@@H]2O[C@H](C)[C@@H](O)[C@H](N)[C@@H]2O)C[C@@H]2O[C@](O)(C[C@@H](O)C[C@@H](O)[C@H](O)CC[C@@H](O)C[C@@H](O)CC(=O)O[C@H]1C)C[C@H](O)[C@H]2C(=O)O", "note": "[Amphotericin B]", "values": [
      {"measurement": "Replication of HTLV-III/LAV (in words)", "setting": "HTLV-III/LAV", "result": "inhibited"},
      {"measurement": "MIC, free", "setting": "C. albicans [4]", "result": 0.4, "unit": "µg/mL"}
    ]},
    {"molecule": "COC(=O)[C@H]1[C@@H]2C[C@@H](O[C@@H]3O[C@H](C)[C@@H](O)[C@H](N)[C@@H]3O)/C=C/C=C/C=C/C=C/C=C/C=C/C=C/[C@H](C)[C@@H](O)[C@@H](C)[C@H](C)OC(=O)C[C@H](O)C[C@H](O)CC[C@@H](O)[C@H](O)C[C@H](O)C[C@](O)(C[C@@H]1O)O2", "note": "[amphotericin B methyl ester ascorbate]", "values": [
      {"measurement": "Replication of HTLV-III/LAV (in words)", "setting": "HTLV-III/LAV", "result": "inhibited"}
    ]},
    {"molecule": "C[C@@H]1C/C=C/C=C/C=C/C=C/[C@H](O[C@@H]2O[C@H](C)[C@@H](O)[C@H](N)[C@@H]2O)C[C@@H]2O[C@](O)(C[C@@H](O)C[C@H]3O[C@@H]3/C=C/C(=O)O1)C[C@H](O)[C@H]2C(=O)O", "note": "[Natamycin, natamycin]", "values": [
      {"measurement": "MIC, free", "setting": "C. albicans [4]", "result": 4.0, "unit": "µg/mL"}
    ]}
  ]
}
